Source: article PMC3961306, “Comparison of the Cancer Gene Targeting and Biochemical Selectivities of All Targeted Kinase Inhibitors Approved for Clinical Use” (PLoS ONE, 2014)

Legend:
Assay in all cases: Kinase profiling in a biochemical assay panel (mobility shift assays and ELISA), %-inhibition at 1 μM; selectivity entropy
[1] = molecular target: T1, panel of more than 300 wild-type and mutant kinases (313 kinase panel) (Homo sapiens, UniProt O00141)
T1 sequence (O00141 1-431): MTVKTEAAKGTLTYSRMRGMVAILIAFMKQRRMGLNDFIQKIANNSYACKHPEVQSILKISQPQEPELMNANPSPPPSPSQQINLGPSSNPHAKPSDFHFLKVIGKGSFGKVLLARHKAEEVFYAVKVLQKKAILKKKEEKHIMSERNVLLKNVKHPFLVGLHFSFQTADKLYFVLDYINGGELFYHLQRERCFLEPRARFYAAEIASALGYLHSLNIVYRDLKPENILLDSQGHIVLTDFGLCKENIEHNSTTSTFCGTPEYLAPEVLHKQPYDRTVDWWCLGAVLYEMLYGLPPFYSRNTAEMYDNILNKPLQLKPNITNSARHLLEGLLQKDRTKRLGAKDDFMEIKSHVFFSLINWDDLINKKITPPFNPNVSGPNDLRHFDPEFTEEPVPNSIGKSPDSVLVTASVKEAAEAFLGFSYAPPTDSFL

[2] = molecular target: panel of more than 300 wild-type and mutant kinases (313 kinase panel) (Homo sapiens, UniProt P42336)
[3] = molecular target: panel of more than 300 wild-type and mutant kinases (313 kinase panel) (Homo sapiens, UniProt P51812)
[4] = molecular target: panel of more than 300 wild-type and mutant kinases (313 kinase panel) (Homo sapiens, UniProt P78362)
[5] = molecular target: panel of more than 300 wild-type and mutant kinases (313 kinase panel) (Homo sapiens, UniProt Q00535)
panel of more than 300 wild-type and mutant kinases (313 kinase panel) (Homo sapiens, UniProt Q00535), sequence (Q00535 whole entry, change not shown): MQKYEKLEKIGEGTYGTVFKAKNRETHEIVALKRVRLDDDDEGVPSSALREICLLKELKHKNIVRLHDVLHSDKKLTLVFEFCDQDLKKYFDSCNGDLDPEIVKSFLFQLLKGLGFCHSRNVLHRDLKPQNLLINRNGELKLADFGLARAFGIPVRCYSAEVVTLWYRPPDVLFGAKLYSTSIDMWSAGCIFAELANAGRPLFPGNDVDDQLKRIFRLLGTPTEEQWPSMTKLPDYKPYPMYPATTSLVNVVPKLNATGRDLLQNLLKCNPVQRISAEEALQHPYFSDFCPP

[6] = molecular target: panel of more than 300 wild-type and mutant kinases (313 kinase panel) (Homo sapiens, UniProt Q02779)
panel of more than 300 wild-type and mutant kinases (313 kinase panel) (Homo sapiens, UniProt Q02779), sequence (Q02779 whole entry, change not shown): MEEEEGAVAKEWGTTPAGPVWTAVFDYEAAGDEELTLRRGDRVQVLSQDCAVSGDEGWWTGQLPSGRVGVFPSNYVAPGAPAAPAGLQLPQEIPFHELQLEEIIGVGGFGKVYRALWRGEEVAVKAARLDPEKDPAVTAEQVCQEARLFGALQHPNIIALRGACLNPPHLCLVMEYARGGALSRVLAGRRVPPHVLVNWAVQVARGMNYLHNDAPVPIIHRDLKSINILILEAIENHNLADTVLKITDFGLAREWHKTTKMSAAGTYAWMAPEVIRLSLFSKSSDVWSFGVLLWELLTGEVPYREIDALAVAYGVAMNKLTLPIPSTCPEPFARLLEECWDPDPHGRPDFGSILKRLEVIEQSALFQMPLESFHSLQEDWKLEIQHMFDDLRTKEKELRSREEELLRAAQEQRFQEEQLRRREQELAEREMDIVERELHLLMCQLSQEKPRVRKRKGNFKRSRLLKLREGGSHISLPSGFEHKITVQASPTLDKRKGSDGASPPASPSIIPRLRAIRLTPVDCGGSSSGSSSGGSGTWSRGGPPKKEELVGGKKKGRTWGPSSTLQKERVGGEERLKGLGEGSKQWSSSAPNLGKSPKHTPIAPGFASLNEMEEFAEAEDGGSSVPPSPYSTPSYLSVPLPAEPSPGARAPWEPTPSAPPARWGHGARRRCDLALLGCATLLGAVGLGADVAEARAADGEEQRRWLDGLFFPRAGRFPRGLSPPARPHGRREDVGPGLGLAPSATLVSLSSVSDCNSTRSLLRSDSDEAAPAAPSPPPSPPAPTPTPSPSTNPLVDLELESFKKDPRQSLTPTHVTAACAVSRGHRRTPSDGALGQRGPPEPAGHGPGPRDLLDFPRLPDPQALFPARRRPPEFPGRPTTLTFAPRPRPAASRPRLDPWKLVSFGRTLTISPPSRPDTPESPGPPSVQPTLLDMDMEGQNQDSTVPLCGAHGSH

[7] = molecular target: panel of more than 300 wild-type and mutant kinases (313 kinase panel) (Homo sapiens, UniProt Q16816)
panel of more than 300 wild-type and mutant kinases (313 kinase panel) (Homo sapiens, UniProt Q16816), sequence (Q16816 whole entry, change not shown): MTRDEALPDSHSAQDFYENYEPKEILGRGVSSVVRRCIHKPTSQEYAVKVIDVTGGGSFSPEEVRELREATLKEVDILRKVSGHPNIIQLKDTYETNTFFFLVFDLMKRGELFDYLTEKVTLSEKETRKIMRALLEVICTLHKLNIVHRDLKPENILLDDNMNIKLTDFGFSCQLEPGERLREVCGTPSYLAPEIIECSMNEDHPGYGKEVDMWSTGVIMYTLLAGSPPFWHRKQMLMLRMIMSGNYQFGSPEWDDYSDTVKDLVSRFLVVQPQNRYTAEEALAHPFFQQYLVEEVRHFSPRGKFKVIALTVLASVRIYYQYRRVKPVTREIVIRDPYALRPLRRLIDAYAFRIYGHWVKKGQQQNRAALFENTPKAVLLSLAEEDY

[8] = molecular target: panel of more than 300 wild-type and mutant kinases (313 kinase panel) (Homo sapiens, UniProt Q9H0K1)
panel of more than 300 wild-type and mutant kinases (313 kinase panel) (Homo sapiens, UniProt Q9H0K1), sequence (Q9H0K1 whole entry, change not shown): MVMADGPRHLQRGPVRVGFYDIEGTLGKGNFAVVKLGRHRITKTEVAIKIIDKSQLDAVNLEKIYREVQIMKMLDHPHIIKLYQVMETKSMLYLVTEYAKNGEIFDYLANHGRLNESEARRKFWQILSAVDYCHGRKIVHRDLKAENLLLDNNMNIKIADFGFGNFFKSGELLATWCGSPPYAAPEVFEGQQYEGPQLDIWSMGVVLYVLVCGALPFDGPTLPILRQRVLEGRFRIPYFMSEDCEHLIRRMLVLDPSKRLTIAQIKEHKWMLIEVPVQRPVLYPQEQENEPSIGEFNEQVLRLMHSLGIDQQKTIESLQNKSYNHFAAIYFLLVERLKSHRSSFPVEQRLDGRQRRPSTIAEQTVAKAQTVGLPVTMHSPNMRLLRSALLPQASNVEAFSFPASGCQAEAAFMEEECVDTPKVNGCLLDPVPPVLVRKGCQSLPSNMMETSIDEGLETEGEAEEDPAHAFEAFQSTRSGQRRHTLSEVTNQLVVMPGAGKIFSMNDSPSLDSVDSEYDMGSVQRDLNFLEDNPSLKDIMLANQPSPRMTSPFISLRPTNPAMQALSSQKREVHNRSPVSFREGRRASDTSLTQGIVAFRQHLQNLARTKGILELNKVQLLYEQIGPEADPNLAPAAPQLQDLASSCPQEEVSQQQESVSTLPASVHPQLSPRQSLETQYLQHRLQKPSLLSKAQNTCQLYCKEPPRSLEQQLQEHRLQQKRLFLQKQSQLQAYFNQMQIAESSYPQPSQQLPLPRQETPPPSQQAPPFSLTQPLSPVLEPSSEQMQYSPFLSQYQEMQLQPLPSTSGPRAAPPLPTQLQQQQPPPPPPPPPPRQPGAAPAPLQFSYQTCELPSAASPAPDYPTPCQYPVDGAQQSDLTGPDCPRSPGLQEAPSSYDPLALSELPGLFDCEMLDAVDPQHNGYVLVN

[9] = molecular target: T2, panel of more than 300 wild-type and mutant kinases (313 kinase panel) (Homo sapiens, UniProt Q9HBY8)
T2 sequence (Q9HBY8 1-367): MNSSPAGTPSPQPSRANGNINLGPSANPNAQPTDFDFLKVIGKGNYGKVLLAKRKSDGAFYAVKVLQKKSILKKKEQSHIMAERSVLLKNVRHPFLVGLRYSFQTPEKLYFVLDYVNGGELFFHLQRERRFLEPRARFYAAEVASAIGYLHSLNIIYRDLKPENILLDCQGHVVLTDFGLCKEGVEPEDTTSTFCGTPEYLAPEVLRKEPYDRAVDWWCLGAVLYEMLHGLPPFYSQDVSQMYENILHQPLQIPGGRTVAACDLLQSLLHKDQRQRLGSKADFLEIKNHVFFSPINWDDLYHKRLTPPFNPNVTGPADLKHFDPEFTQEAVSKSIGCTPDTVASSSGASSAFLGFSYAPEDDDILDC

[10] = molecular target: panel of more than 300 wild-type and mutant kinases (313 kinase panel) (Homo sapiens, UniProt Q9Y5S2)
[11] = molecular target: T3, panel of more than 300 wild-type and mutant kinases (313 kinase panel) (Homo sapiens, UniProt O14733)
T3 sequence (O14733 1-419): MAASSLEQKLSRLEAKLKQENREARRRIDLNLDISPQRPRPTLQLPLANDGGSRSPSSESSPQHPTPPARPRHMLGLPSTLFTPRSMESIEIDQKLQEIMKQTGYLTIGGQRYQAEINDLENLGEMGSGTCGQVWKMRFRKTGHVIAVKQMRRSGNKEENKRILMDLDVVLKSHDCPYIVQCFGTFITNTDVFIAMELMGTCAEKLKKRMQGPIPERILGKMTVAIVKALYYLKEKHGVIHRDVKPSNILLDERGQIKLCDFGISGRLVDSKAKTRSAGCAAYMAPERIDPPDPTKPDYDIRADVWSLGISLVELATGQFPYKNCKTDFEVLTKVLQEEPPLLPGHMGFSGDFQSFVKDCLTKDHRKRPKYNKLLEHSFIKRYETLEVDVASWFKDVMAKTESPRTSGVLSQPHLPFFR

[12] = molecular target: panel of more than 300 wild-type and mutant kinases (313 kinase panel) (Homo sapiens, UniProt P53779)
panel of more than 300 wild-type and mutant kinases (313 kinase panel) (Homo sapiens, UniProt P53779), sequence (P53779 whole entry, change not shown): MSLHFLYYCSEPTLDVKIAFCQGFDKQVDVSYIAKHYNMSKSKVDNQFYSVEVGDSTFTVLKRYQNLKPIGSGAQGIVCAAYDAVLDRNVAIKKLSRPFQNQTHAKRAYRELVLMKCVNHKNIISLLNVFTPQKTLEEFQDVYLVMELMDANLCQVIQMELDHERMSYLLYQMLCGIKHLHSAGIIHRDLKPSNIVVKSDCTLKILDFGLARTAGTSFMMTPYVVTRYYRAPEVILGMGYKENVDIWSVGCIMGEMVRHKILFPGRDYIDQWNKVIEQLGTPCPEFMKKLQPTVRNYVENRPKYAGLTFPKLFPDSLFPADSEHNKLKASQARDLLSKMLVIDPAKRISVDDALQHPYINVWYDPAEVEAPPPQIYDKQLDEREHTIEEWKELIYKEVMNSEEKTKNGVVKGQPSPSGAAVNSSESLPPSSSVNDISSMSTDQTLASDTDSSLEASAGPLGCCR

[13] = kinase MAP2K7, compound at 1 μM

Compound | %-inhibition of SGK ([1]; kinase SGK, 1 μM) [%] | %-inhibition of PIK3CA/PIK3R1 ([2]; kinase PIK3CA/PIK3R1, 1 μM) [%] | %-inhibition of SRPK2 ([4]; kinase SRPK2, 1 μM) [%] | %-inhibition, CDK5/p25 ([5]; kinase CDK5/p25, 1 μM compound) [%] | %-inhibition of MLK2 ([6]; kinase MLK2, 1 μM) [%] | %-inhibition of PHKG1 ([7]; kinase PHKG1, 1 μM) [%] | %-inhibition of QIK ([8]; kinase QIK, 1 μM) [%] | %-inhibition of SGK2 ([9]; kinase SGK2, 1 μM) [%] | %-inhibition of MRCKβ ([10]; kinase MRCKβ, 1 μM) [%] | %-inhibition of MAP2K7 [11, 13] [%] | %-inhibition of RSK2 ([3]; kinase RSK2, 1 μM) [%] | %-inhibition of JNK3 ([12]; kinase JNK3, compound at 1 μM) [%] | further results
COc1cc(Nc2c(C#N)cnc3cc(OCCCN4CCN(C)CC4)c(OC)cc23)c(Cl)cc1Cl [bosutinib] | -5 | 37 | -9 | -25 | 58 | 49 | 100 | -3.37 | 66 | – | – | – | %-inhibition of RSK2 ([3]; 1 µM): 41%
COc1cc2nccc(Oc3ccc(NC(=O)C4(C(=O)Nc5ccc(F)cc5)CC4)cc3)c2cc1OC [cabozantinib] | -2 | 48 | 0.2 | -14 | 6.67 | 53 | 0.408 | -1.48 | -3 | 10 | -3.61 | -2 | –
C[C@@H](Oc1cc(-c2cnn(C3CCNCC3)c2)cnc1N)c1c(Cl)ccc(F)c1Cl [crizotinib] | 1.46 | – | -2.33 | -8 | 4.7 | 2.74 | 38 | -2.31 | -2 | 4.36 | 0.217 | -1.87 | –
CC(C)(C)c1nc(-c2cccc(NS(=O)(=O)c3c(F)cccc3F)c2F)c(-c2ccnc(N)n2)s1 [dabrafenib] | 4 | 4.42 | 11 | 22 | 47 | -0.59 | 80 | -7.58 | -2.85 | -4.55 | – | 5.59 | –
Cc1nc(Nc2ncc(C(=O)Nc3c(C)cccc3Cl)s2)cc(N2CCN(CCO)CC2)n1 [dasatinib] | 6 | – | – | 4.63 | – | – | – | 6 | – | -7 | – | – | –
C#Cc1cccc(Nc2ncnc3cc(OCCOC)c(OCCOC)cc23)c1 [erlotinib] | – | – | – | – | – | – | – | – | – | – | – | – | %-inhibition of SGK ([1]; 1 µM): 6%; %-inhibition of MAP2K7 ([11]; 1 µM): -5%; %-inhibition of PIK3CA/PIK3R1 ([2]; 1 µM): 11%; %-inhibition of RSK2 ([3]; 1 µM): 6.4%; %-inhibition of JNK3 ([12]; 1 µM): 22%; %-inhibition of SRPK2 ([4]; 1 µM): 4.47%; %-inhibition, CDK5/p25 ([5]; 1 µM): 8%; %-inhibition of MLK2 ([6]; 1 µM): -1.75%; %-inhibition of PHKG1 ([7]; 1 µM): 5%; %-inhibition of QIK ([8]; 1 µM): 18%; %-inhibition of SGK2 ([9]; 1 µM): 10%; %-inhibition of MRCKβ ([10]; 1 µM): -4%
CO[C@H]1C[C@@H]2CC[C@@H](C)[C@@](O)(O2)C(=O)C(=O)N2CCCC[C@H]2C(=O)O[C@H]([C@H](C)C[C@@H]2CC[C@@H](OCCO)[C@H](OC)C2)CC(=O)[C@H](C)/C=C(\C)[C@@H](O)[C@@H](OC)C(=O)[C@H](C)C[C@H](C)/C=C/C=C/C=C/1C [everolimus] | -6.59 | 22 | -10 | -26 | 4 | 0.522 | -3 | -2 | 0.688 | 11 | -1.35 | -4.31 | –
O=S(=O)(c1cccc2cnccc12)N1CCCNCC1 [fasudil] | 2.82 | -7 | -1.36 | – | -10 | 2.6 | 3.26 | -0.764 | – | -3.26 | – | -4 | –
CS(=O)(=O)CCNCc1ccc(-c2ccc3ncnc(Nc4ccc(OCc5cccc(F)c5)c(Cl)c4)c3c2)o1 [lapatinib] | 2.49 | – | 4.47 | 0.201 | 1.78 | 4.72 | -4.72 | 1.81 | -5 | -4 | -1 | 11 | %-inhibition of PIK3CA/PIK3R1 ([2]; 1 µM): -9%
Cc1ccc(Nc2nccc(N(C)c3ccc4c(C)n(C)nc4c3)n2)cc1S(N)(=O)=O [pazopanib] | -1.12 | 45 | -4 | 9 | 18 | 1.52 | 17 | -3.44 | 1.15 | 10 | 9 | – | –
Cc1ccc(C(=O)Nc2ccc(CN3CCN(C)CC3)c(C(F)(F)F)c2)cc1C#Cc1cnc2cccnn12 [ponatinib] | 7.57 | 45 | -3 | -20 | 39 | 5 | 51 | 12 | 1.18 | – | 30 | – | –
CCN(CC)CCNC(=O)c1c(C)[nH]c(/C=C2\C(=O)Nc3ccc(F)cc32)c1C [sunitinib] | 60 | – | – | – | – | 95 | – | – | – | – | – | – | –
